What was measured:
HMG-CoA reductase [1] = test: HepG2 cell culture model, HMG-CoA reductase suppression assay; assay type: cell-based, human; details: 10 µM, about 4 hours, HepG2 cells
Method: HMG-CoA reductase suppression in HepG2 cells was conducted by growing cells in RPMT-1640 plus 10% FBS on 100 mm plates, and when cells reached approximately 75% confluency, inducing with LDS (as described above) for about 16 hours prior to assays. Compounds were added using dimethylsulfoxide vehicle (0.5% v/v, final) and after about 4 hours of incubation at 37°, cells were harvested by scraping. Cell pellets were rinsed and lysed by sonication in 1.7 ml cold 50 mM imidazole-HCL, pH 7.2, 50 mM NaCl, 10 mM EDTA, 10 mM EGTA, 5 mM DTT, and 40µM leupeptin). Lysates were centriguged at 150 x g and the supernatant was centrifuged at 100,000 x g in a Beckman airfuge to isolate the post-nuclear total membrane fraction. The membranes were resuspended in 50 mM imidazole-HCl, pH 7.2, 250 mM NaCl, 5 mM DTT, and 20µM leupeptin and used for the assay of HMG-CoA reductase activity by the radiochemical procedure as described previously by Parker et al., J. Biol. Chem., 264: 4877-4887, (1989). Values were normalized for protein content by the Lowry method as cited previously (ibid). HMG-CoA reductase percent suppression was calculated as the decrease in specific activity of HMG-CoA reductase for treated cells vs. controls receiving vehicle. Averages of duplicate cell determinations assayed in duplicate were taken.
The human hepatoma HepG2 cell culture model was employed to compare the intrinsic activities of the tocotrienols. HepG2 cells were incubated with the indicated compounds for about 4 hours at 10 µM. Cholestrol synthesis was assayed by 14C-acetate incorporation and HMG-CoA reductase suppression was assayed in the isolated microsomal fraction. Cholesterol synthesis inhibition was assayed by 14C-acetate incorporation after preincubation of HepG2 cells with the compounds for about 2 hours or about 4 hours (Example IV). […] As the data in Figure 1 indicate, gamma-tocotrienol has an even greater relative potency compared to alpha-tocotrienol in the HepG2 cell model than in rat hepatocytes. The IC50s from these studies are given in Table 3, in which it can be seen that the intrinsic potency of gamma-tocotrienol is over 30-fold greater than that of alpha-tocotrienol.
The mechanism of cholesterol synthesis inhibition by tocotrienols involves down regulation of the limiting enzyme of sterol synthesis, HMG-CoA reductase. […] The suppression of HMG-CoA reductase protein expression by gamma-tocotrienol and delta-tocotrienol in HepG2 cells and in rat liver has been confirmed by immunoassy using the Western blot technique (data not shown).

HMG-CoA reductase [2] = test: HMG-CoA reductase specific activity in chickens fed compound in diet; assay type: in vivo; details: 20 ppm in corn control diet, 4 weeks; for HMG-CoA Reductase Specific Acticity: 6-week old male chickens, control 1086.9(±114.0)
Method: Natural gamma-tocotrienol and delta-tocotrienol were evaluated for their hypocholesterolemic action in normocholesterolemic chickens and genetically hypercholesterolemic swine. Newborn male chicks (10 for each group) were raised on a standard corn-soybean-based control diet for two weeks and then were switched to either control or experimental diets for four weeks. Drug treatment consisted of the addition of gamma-tocotrienol or delta-tocotrienol to the corn-soybean-based diet at a concentration of 20 ppm. At the end of the feeding period, all the birds were fasted (about 36 hours) and refed (about 48 hours) to induce cholesterolgenic emzymes prior to sacrifice. The specific activity of HMG-CoA reductase, total serum cholesterol levels, HDL/LDL cholesterol pools, and serum triglyceride levels were examined (Table 5).

Structure (SMILES): CC(C)=CCC/C(C)=C/CC/C(C)=C/CC[C@]1(C)CCc2cc(O)c(C)c(C)c2O1 [d-γ-tocotrienol]
- % Suppression HMG-CoA Reductase (HMG-CoA reductase [1]): 64%
- HMG-CoA Reductase Specific Acticity [% of Control] (HMG-CoA reductase [2]): 45.5%
- HMG-CoA Reductase Specific Acticity (HMG-CoA reductase [2]): 494.2(±22.9)

Structure (SMILES): CC(C)=CCC/C(C)=C/CC/C(C)=C/CC[C@]1(C)CCc2cc(O)cc(C)c2O1 [d-δ-tocotrienol]
- % Suppression HMG-CoA Reductase (HMG-CoA reductase [1]): 65%
- HMG-CoA Reductase Specific Acticity [% of Control] (HMG-CoA reductase [2]): 50.6%
- HMG-CoA Reductase Specific Acticity (HMG-CoA reductase [2]): 550.2(±33.8)
